Measurements: ChEMBL document CHEMBL1137199, “Estrogen receptor ligands. Part 8: Dihydrobenzoxathiin SERAMs with heteroatom-substituted side chains” (Bioorg Med Chem Lett, 2004)

What was measured:
Estrogen receptor = target: T1, Estrogen receptor (Homo sapiens, UniProt P03372)
T1 sequence (P03372 whole entry): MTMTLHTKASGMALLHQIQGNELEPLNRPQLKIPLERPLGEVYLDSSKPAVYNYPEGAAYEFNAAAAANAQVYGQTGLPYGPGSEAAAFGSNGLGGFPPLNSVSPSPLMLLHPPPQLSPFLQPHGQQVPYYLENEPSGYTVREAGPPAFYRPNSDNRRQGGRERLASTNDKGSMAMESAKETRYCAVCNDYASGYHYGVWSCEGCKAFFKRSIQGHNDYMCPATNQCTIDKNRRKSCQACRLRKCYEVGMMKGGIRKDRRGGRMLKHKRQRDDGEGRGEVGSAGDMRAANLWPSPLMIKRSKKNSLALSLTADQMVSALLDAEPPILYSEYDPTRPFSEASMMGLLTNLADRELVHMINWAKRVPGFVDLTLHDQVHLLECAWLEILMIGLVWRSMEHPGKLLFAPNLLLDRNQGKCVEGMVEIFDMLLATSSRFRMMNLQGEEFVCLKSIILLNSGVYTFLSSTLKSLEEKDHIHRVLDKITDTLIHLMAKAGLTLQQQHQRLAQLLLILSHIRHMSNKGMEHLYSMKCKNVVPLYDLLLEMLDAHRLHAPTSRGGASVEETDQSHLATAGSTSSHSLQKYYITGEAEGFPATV

Estrogen receptor beta = Estrogen receptor beta (Homo sapiens, UniProt Q92731)
Chain of Estrogen receptor beta (Q92731 whole entry): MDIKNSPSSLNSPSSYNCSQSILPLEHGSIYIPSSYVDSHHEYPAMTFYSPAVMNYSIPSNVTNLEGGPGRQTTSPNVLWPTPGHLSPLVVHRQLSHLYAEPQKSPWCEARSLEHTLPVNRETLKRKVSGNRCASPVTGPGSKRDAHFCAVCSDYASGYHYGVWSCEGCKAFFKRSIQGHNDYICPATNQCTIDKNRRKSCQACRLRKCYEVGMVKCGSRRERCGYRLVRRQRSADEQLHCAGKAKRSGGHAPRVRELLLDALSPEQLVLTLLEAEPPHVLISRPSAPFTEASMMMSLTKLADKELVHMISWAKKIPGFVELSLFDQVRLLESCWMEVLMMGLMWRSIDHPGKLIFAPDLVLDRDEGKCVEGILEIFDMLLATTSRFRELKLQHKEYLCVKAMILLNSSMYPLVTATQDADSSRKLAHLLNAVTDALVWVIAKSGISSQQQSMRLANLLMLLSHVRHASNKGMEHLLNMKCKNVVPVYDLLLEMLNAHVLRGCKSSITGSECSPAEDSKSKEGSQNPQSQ

MCF7 = test: cells; details: Homo sapiens

In the case of Oc1ccc([C@H]2Sc3cc(O)ccc3O[C@H]2c2ccc(OCCN3CCC(F)CC3)cc2)cc1, the IC50 (Estrogen receptor) is reported as 2.5 nM and the IC50 (Estrogen receptor beta) is reported as 116 nM.
With Oc1ccc([C@H]2Sc3cc(O)ccc3O[C@H]2c2ccc(OCCN3CCC(O)CC3)cc2)cc1 the IC50 (Estrogen receptor) was 1.8 nM, the IC50 (Estrogen receptor beta) was 331 nM and the IC50 (MCF7) was 7.5 nM.
OCC1CCN(CCOc2ccc([C@@H]3Oc4ccc(O)cc4S[C@@H]3c3ccc(O)cc3)cc2)CC1 was tested, and the IC50 (Estrogen receptor) was 2.2 nM, the IC50 (Estrogen receptor beta) was 436 nM and the IC50 (MCF7) was 11.3 nM.
NC(=O)C1CCN(CCOc2ccc([C@@H]3Oc4ccc(O)cc4S[C@@H]3c3ccc(O)cc3)cc2)CC1 was tested, and the IC50 (Estrogen receptor) was 2.2 nM, the IC50 (Estrogen receptor beta) was 366 nM and the IC50 (MCF7) was 21 nM.
Oc1ccc([C@H]2Sc3cc(O)ccc3O[C@H]2c2ccc(OCCN3CC[C@@H](F)C3)cc2)cc1 showed an IC50 (Estrogen receptor) of 0.5 nM, an IC50 (Estrogen receptor beta) of 59 nM and an IC50 (MCF7) of 3.8 nM.
For Oc1ccc([C@H]2Sc3cc(O)ccc3O[C@H]2c2ccc(OCCN3CC[C@@H](O)C3)cc2)cc1, the IC50 (Estrogen receptor) was 1.7 nM, the IC50 (Estrogen receptor beta) was 81 nM and the IC50 (MCF7) was 0.6 nM.
Work on O=S1(=O)CCN(CCOc2ccc([C@@H]3Oc4ccc(O)cc4S[C@@H]3c3ccc(O)cc3)cc2)CC1 yielded an IC50 (Estrogen receptor) of 2 nM, an IC50 (Estrogen receptor beta) of 247 nM and an IC50 (MCF7) of 26.3 nM.
Molecule Oc1ccc([C@H]2Sc3cc(O)ccc3O[C@H]2c2ccc(OCCN3CCC4(CC3)OCCO4)cc2)cc1 has an IC50 (Estrogen receptor) of 2 nM, an IC50 (Estrogen receptor beta) of 267 nM and an IC50 (MCF7) of 42.3 nM.
Work on OC[C@@H]1CCCN1CCOc1ccc([C@@H]2Oc3ccc(O)cc3S[C@@H]2c2ccc(O)cc2)cc1 yielded an IC50 (Estrogen receptor) of 3.9 nM, an IC50 (Estrogen receptor beta) of 81 nM and an IC50 (MCF7) of 1.9 nM.
In the case of OC[C@H]1CCCN1CCOc1ccc([C@@H]2Oc3ccc(O)cc3S[C@@H]2c2ccc(O)cc2)cc1, the IC50 (Estrogen receptor) is reported as 2 nM, the IC50 (Estrogen receptor beta) is reported as 134 nM and the IC50 (MCF7) is reported as 3.2 nM.
Oc1ccc([C@H]2Sc3cc(O)ccc3O[C@H]2c2ccc(OCCN3CCSCC3)cc2)cc1 showed an IC50 (Estrogen receptor) of 1.5 nM, an IC50 (Estrogen receptor beta) of 72 nM and an IC50 (MCF7) of 15.6 nM.
Work on OCCC1CCN(CCOc2ccc([C@@H]3Oc4ccc(O)cc4S[C@@H]3c3ccc(O)cc3)cc2)CC1 yielded an IC50 (Estrogen receptor) of 7.3 nM, an IC50 (Estrogen receptor beta) of 1110 nM and an IC50 (MCF7) of 42.5 nM.
Oc1ccc([C@H]2Sc3cc(O)ccc3O[C@H]2c2ccc(OCCN3CCC(F)(F)CC3)cc2)cc1 gave an IC50 (Estrogen receptor) of 16 nM, an IC50 (Estrogen receptor beta) of 275 nM and an IC50 (MCF7) of 42 nM.
